Data on 1 compound can be found in patent US10398786B2, “Therapeutic gene cocktail for heart regeneration” (Academia Sinica, priority 2015, dated 2019).

This experiment relates to adult CMs of OSKM transgenic mice. The experiment in a line: doxycycline injection into OSKM transgenic mice, adult CMs isolated after two days. Particulars: two days after doxycycline treatment. The class given is in vivo. As for the experimental part: Reverse transcription were completed following the protocol of SuperScript III Reverse-Transcriptase kit (Life Technology). SYBR Green Real-Time PCR master mixes were used to quantify each gene expression, and GAPDH were performed for normalization.
Adult ventricular CMs were isolated from male mice on a Langendorff apparatus. The hearts were removed from the anaesthetized mice after heparinization for 10 mins, and then were cannulated for retrograde perfusion with Ca^2+-free Tyrode solution (NaCl 120.4 mmol/L, KCl 14.7 mmol/L, KH2PO4 0.6 mmol/L, Na2HPO4 0.6 mmol/L, MgSO4 1.2 mmol/L, HEPES 1.2 mmol/L, NaHCO3 4.6 mmol/L, Taurine 30 mmol/L, BDM 10 mmol/L, Glucose 5.5 mmol/L).
After 3-minutes of perfusion, the solution mixed with Ca^2+-free Tyrode solution supplemented with collagenase B (0.4 mg/g body weight, Roche), collagenase D (0.3 mg/g body weight, Roche) and protease type XIV (0.05 mg/g body weight, Sigma-Aldrich) were used to digest the hearts. After digestion, the ventricles were cut from the cannula and teased into small pieces in the digestion solution neutralized by the Ca^2+-free Tyrode solution containing 10% FBS. Adult CMs were dissociated from the digested tissues by gentle pipetting and collected after removing the un-digested tissues by filtering through a nylon mesh of 250 μm pore size. […]

For `C[C@H]1c2cccc(O)c2C(=O)C2=C(O)[C@]3(O)C(=O)C(C(N)=O)=C(O)[C@@H](N(C)C)[C@@H]3[C@@H](O)[C@@H]21` [doxycycline], the “H3P+ population of adult CMs relative to control” value is reported as 2 ×.
